Results from patent US12447160B2, “Topical treatment of wounds with statins and cholesterol for scar reduction” (Northwestern University, priority 2017, dated 2025).

How the values were obtained:
[1] = test system: hypertrophic scar; experiment: Rabbit ear hypertrophic scar model, scar elevation index (SEI) by histomorphometry; type: in vivo, New Zealand White rabbits
[2] = Solubility of statins in the topical vehicle / microemulsion system; type: physicochemical
From the text: Transdermal penetration is the critical limitation in topical application. […] The stratum corneum is hydrophobic and a barrier for any topically applied reagent, and so hydrophobic statins should have increased penetration^18. […] Dosing schedules were chosen based upon in vitro dosing necessary to interfere with CTGF expression^11-13,22,23, and extrapolated to animal models based upon our experience with dose response curves for growth factors in our rabbit ear model^24.

[3] = test system: CTGF mRNA; experiment: Quantification of CTGF mRNA expression in dermal scar tissue (qPCR); type: in vivo, New Zealand White rabbits; conditions: high-dose (10%) simvastatin topical, mean±SEM, p<0.01
Protocol: (§1) Total RNA was extracted from dermal scar tissue of high-dose simvastatin topical treatment and control scars using TRI reagent (Sigma-Aldrich, St. Louis, MO), and contaminated DNA was removed with Turbo DNA-free kit (Ambion, Austin, TX). The cDNA was synthesized from one μg of total RNA by superscript II reverse transcriptase (Invitrogen, Grand Island, NY) with 100 ng of random primers in 20 μl of volume. Synthesized cDNA was quantified in a sequence detection system (ABI StepOnePlus; Applied Biosystems, Foster City, CA) using SYBR green and specific primers of CTGF and collagen 1A1, and 18 S rRNA was set as endogenous control. The sequence of primers is as followed: CTGF (5′-CTTCTGTCGGCTGGAGAAAC-3′ (SEQ ID NO:1) & 5′-TTAGCCCGGTACGTCTTCAC-3′ (SEQ ID NO:2)); Collagen 1A1: (5′-TAAGAGCTCCAAGGCCAAGA-3′(SEQ ID NO:3) & 5′-TGTTCTGAGAGGCGTGATTG-3′ (SEQ ID NO:4)); Glyceraldehyde 3-phosphate dehydrogenase (5′-AGGTCATCCACGACCACTTC-3′ (SEQ ID NO:5) & 5′-GTGAGTTTCCCGTTCAGCTC-3′ (SEQ ID NO:6)).
(§2) For statistical analysis of histological and molecular analysis results, Student's paired t test was applied to see if there is a difference between treatment and control group, p<0.05 was used as significant. All values were represented as mean±standard error.

[4] = test system: Collagen 1A1 mRNA; experiment: Quantification of Collagen 1A1 mRNA expression in dermal scar tissue (qPCR); type: in vivo, New Zealand White rabbits; conditions: high-dose (10%) simvastatin topical, mean±SEM, p<0.01
Protocol: as §1, §2

**Q.** For `CC(C)CCC[C@@H](C)[C@H]1CC[C@H]2[C@@H]3CC=C4C[C@@H](O)CC[C@]4(C)[C@H]3CC[C@]12C` [cholesterol], which “Effect of cholesterol on reducing scarring” value ([1]; topical cholesterol in vehicle) is on record?
**A.** mild, not statistically effect

**Q.** With `CC[C@H](C)C(=O)O[C@H]1C[C@@H](C)C=C2C=C[C@H](C)[C@H](CC[C@@H]3C[C@@H](O)CC(=O)O3)[C@H]21` [lovastatin] as the compound, how does the “Solubility in the vehicle tested” value [2] read?
**A.** limited solubility

**Q.** With `CC[C@H](C)C(=O)O[C@H]1C[C@H](O)C=C2C=C[C@H](C)[C@H](CC[C@@H](O)C[C@@H](O)CC(=O)O)[C@H]21` [pravastatin] as the compound, how does the “Scar elevation index (SEI)” value ([1]; intradermal 100 μl 10 μM pravastatin in PBS per wound at POD 15, 18, 21, harvest POD 28, mean±standard error, saline control 1.71±0.08, p=0.0009) read?
**A.** 1.55±0.07

**Q.** With `CCC(C)(C)C(=O)O[C@H]1C[C@@H](C)C=C2C=C[C@H](C)[C@H](CC[C@@H]3C[C@@H](O)CC(=O)O3)[C@H]21` [simvastatin] as the compound, how does the “mRNA expression of CTGF compared to vehicle control” value [3] read?
**A.** 53.8±8.0%

**Q.** What about the “mRNA expression of Collagen 1A1 compared to vehicle control” value [4] of the same compound?
**A.** 48.5±14%
